The values that follow come from US20080286785A1, “Method to predict or monitor the response of a patient to an erbb receptor drug” (AstraZeneca UK Limited, priority 2005, published 2008).

For assay [1] the following is noted: N. Engl. J. Med. 2004; 350(21):2129-2139; cited from earlier work.
Setting [2] is: all of the patients treated with gefitinib, 250 mg daily orally.
[3] abbreviates: four patients with EGFR mutations detected in tumour samples.
[4] abbreviates: patients with EGFR mutations in serum.
The mark [5] stands for this setting: patients without EGFR mutations in serum.
Where [6] appears, read: serum EGFR mutation + by EGFR Scorpion Kit.
The mark [7] stands for this setting: serum EGFR mutation + by direct sequence.
The mark [8] stands for this setting: serum EGFR mutation − by EGFR Scorpion Kit.
[9] abbreviates: serum EGFR mutation − by direct sequence.

Like-named read-outs stand apart in the source and are kept apart here.

Take `COc1cc2ncnc(Nc3ccc(F)c(Cl)c3)c2cc1OCCCN1CCOCC1` [gefitinib]: the “patients that have a rapid and often dramatic clinical response” value in assay [1] was “about 10%”. For the same compound, in the assay with NSCLC (28 patients enrolled, RECIST), the “Response PD (progressive disease), number of patients” value was 11 n; the “Response PR (partial response), number of patients” value worked out at 9 n; the “Response SD (stable disease), number of patients” value was found to be 8 n. Moreover, in the assay with NSCLC (setting [2]), the “median OS” value is given as 306 days and the “median PFS” value came out at 98 days. In the assay on NSCLC (setting [3]), the “responses to gefitinib: PD, number of patients” value is listed as 1; the “responses to gefitinib: PR, number of patients” value was 2; the “responses to gefitinib: SD, number of patients” value amounted to 1. In the assay on NSCLC (setting [4]), the “median OS” value is on record as 611 days and the “median PFS” value amounted to 200 days. In the assay on NSCLC (setting [5]), the “median OS” value is 232 days and the “median PFS” value is reported as 46 days. In the assay with NSCLC (setting [6]), the “Response to gefitinib PD, number of patients” value (“Response to gefitinib PD” for short) amounted to 2 and the “Response to gefitinib PR/SD, number of patients” value (“Response to gefitinib PR/SD” below) is listed as 11. Further, in the assay with NSCLC (setting [7]), the “Response to gefitinib PD” value is given as 2 and the “Response to gefitinib PR/SD” value stood at 8. Besides, in the assay on NSCLC (setting [8]), the “Response to gefitinib PD” value turned out to be 8 and the “Response to gefitinib PR/SD” value came out at 6. In the assay with NSCLC (setting [9]), the “Response to gefitinib PD” value was determined as 8 and the “Response to gefitinib PR/SD” value is on record as 9.
